Where two headings read alike, the source gives them in different places. No end group written: not given here.

These results are taken from patent US5880095A, “Cholesteryl ester transfer protein inhibitor peptides and prophylactic and therapeutic anti-arteriosclerosis agents” (LG Chemical Ltd., priority 1994, dated 1999).

The target in series [1] is T1, CETP (human blood plasma as CETP source) (Homo sapiens, UniProt P11597).
T1 construct: human blood plasma itself was used as the CETP source; from tissue; host or cells: human blood plasma (used as such)
T1 sequence (P11597 18-493): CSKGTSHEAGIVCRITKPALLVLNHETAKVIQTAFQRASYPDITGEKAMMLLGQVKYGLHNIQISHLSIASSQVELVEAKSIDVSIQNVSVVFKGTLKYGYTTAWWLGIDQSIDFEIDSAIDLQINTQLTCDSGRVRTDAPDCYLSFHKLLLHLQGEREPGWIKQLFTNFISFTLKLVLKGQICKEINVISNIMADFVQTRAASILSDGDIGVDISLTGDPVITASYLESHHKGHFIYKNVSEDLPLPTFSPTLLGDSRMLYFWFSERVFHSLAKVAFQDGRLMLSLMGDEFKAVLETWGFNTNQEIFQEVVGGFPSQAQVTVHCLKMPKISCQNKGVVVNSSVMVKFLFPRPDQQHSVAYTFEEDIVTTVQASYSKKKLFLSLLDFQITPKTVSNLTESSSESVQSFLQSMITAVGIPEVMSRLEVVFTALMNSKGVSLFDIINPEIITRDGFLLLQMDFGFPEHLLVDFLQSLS
Nature of the series: Determination of CETP inhibitory activity, human blood plasma itself as CETP source. It is filed as biochemical. On the procedure: (§1) LDL and [^3 H]-cholesteryl oleate-labelled HDL were synthesized in accordance with the method of Morton et al.(see, J. Biol. Chem., 256, 11992-11995(1981)) and then separated using an ultracentrifuge(Beckman XL 70). LDL and [^3 H]-HDL, thus prepared, were used as a CE-receptor and a CE-donor, respectively.
(§2) 0.3 ml of LDL, 0.05 ml of [^3 H]-HDL and 0.05 ml of the CETP source, which were prepared above, and 0.05 ml of a CETP inhibitor were added into a 1.5 ml tube and reacted at 37° C. for 3 hours.
(§3) When the reaction was finished, LDL was precipitated in accordance with the method of Morton et al.(see, Biochim. Biophys. Acta, 663, 350-355(1981)). The amount of the isotope transferred to LDL was determined with a liquid scintillation counter(Packard Tricarb 1600 TR) using a part of the supernatant, and the activity of CETP was calculated therefrom.
(§4) The inhibitory activity of the CETP inhibitor was calculated from the CETP activities of the experimental group, in which the CETP inhibitor was added, and that of control group, in which no CETP inhibitor was added, as follows: [formula]
Further, the same procedures as in the Reference Example, except that human blood plasma itself was used as the CETP source, were repeated to determine CETP inhibitory activity of pure 3 kDa peptide.
CETP inhibitory activities of peptides P28, P10, P18, P24, P20 and P14 were determined in accordance with the method of Reference Example 1 using pure CETP or human blood plasma as a CETP source. To exclude possible nonspecific inhibition, a 2 kDa soluble peptide having an optional amino acid sequence was synthesized, and CETP inhibitory activity thereof was determined in a similar manner(control group).

The target in series [2] is T2, pure CETP separated from human blood plasma (Homo sapiens, UniProt P11597).
T2 construct: Pure CETP was separated from human blood plasma in accordance with the method of Hesler et al; from tissue; host or cells: human blood plasma
T2 sequence (P11597 18-493): T1 sequence (P11597 18-493)
Nature of the series: Determination of CETP inhibitory activity (CE transfer from [3H]-HDL to LDL), pure CETP as CETP source. The following applies: for inhibition at 7 µM: final conc. 7 μM; for inhibition at 9 µM: final conc. 9 μM. It is filed as biochemical. As for the experimental part: as §1
(§5) Pure CETP was separated from human blood plasma in accordance with the method of Hesler et al.(see, J. Biol. Chem., 262, 2275-2282(1987)) and used as a CETP source.
as §2, §3, §4

Series [3] concerns Human fibroblast cell line(A431, ATCC CRL 1555). Description: Toxicity test on cultured cells. It is filed as cell-based. The following applies: 10% (wt/vol) peptide, 72 hours, DMEM with 10% FBS, compared with control without peptide. As for the experimental part:
Human fibroblast cell line(A431, ATCC CRL 1555) was cultured on DMEM medium containing 10% fetal bovine serum(FBS), with the addition of 10% (wt/vol) Peptide P28, P18, P10, P24, P20 or P14, for 72 hours.

A further series has as its target T3, CETP (Homo sapiens, UniProt P11597).
T3 construct: Pure CETP was separated from human blood plasma in accordance with the method of Hesler et al; from tissue; host or cells: human blood plasma
T3 sequence (P11597 18-493): T1 sequence (P11597 18-493)
Nature of the series: CETP inhibitory activity of Peptide P28 according to the substrate (CE-receptor VLDL, LDL, HDL or LDLR). The following applies: final concentration 2 μM. It is filed as biochemical. As for the experimental part: as §1, §5, §2, §3, §4
In order to identify the inhibitory mechanism of Peptide P28 in blood, CETP inhibitory activity of Peptide P28 was determined in accordance with the method of Reference Example 1, using VLDL, LDL, HDL or re-synthesized LDL(LDLR) as a CE-receptor. LDLR was synthesized from LDL obtained in Reference Example 1 by the method of Morton et al.(see, J. Biol. Chem., 256, 11992-11995(1981)). The LDL was delipidated with chloroform and subjected to a gel chromatography to obtain ApoB100 protein. Phosphatidylcholine and cholesteryl oleate was thoroughly mixed, dried using nitrogen gas, and ApoB100 protein obtained above was added thereto. The mixture was reacted with stirring, dialyzed against tris buffer, and subjected to a gel chromatography to obtain LDLR.

Where [4] appears, read: conc. of inhibitor 2 μM, CETP source human plasma, peptides expressed in E. coli, read-out: Inhibitory Activity (Mean ± SD).
Setting [5] is: final conc. of peptide 2 μM, CETP source pure CETP, synthesized peptides.
[6] abbreviates: alanine variants of P10, CETP source not given.
Where [7] appears, read: final conc. of peptide 2 μM, CETP source human plasma, P28' and P13 produced in E. coli, read-out: Inhibitory Activity.

Regarding EDTSPEDKMQDYVKQATRTA [Peptide P20], in series [1] (setting [4]), the inhibition at 2 µM worked out at 45 ± 2.2%. For the same sequence, in series [2] (setting [5]), the “Inhibitory Activity (Mean ± S.D.)” value was determined as 90 ± 1.5%. The “change in growth condition and morphology of cultured cells” value in series [3] is recorded as “no change”.
With EDASPEDKMQ [Variant C], the inhibition at 8 µM in series [2] (final conc. 8 μM, alanine variants of P10, CETP source not given) was -6%.
Take EATSPEDKMQ [Variant B]: the inhibition at 7 µM in series [2] (setting [6]) is -15%.
Regarding EDTSPEDKMQDYVK [Peptide P14], the inhibition at 2 µM in series [1] (setting [4]) worked out at 15 ± 1.5%. Moreover, the “Inhibitory Activity (Mean ± S.D.)” value in series [2] (setting [5]) was 50 ± 3.5%. Besides, the “change in growth condition and morphology of cultured cells” value in series [3] is “no change”.
For the sequence EDTSPADKMQ [Variant F], the inhibition at 6 µM in series [2] (final conc. 6 μM, alanine variants of P10, CETP source not given) amounted to 29%.
Turning to SEAEDASLLSFMQ [Peptide P13], the inhibition at 2 µM in series [1] (setting [7]) is 34 ± 2.9%.
In the case of ADTSPEDKMQ [Variant A], in series [2] (setting [6]), the inhibition at 7 µM is -12%.
In the case of EDTAPEDKMQ [Variant D], the inhibition at 7 µM in series [2] (setting [6]) is -12%.
On to EDTSPEDKAQ [Variant I], for which the inhibition at 9 µM in series [2] (setting [6]) is 69%.
With EDTSPEDAMQ [Variant H], in series [2] (final conc. 5 μM, alanine variants of P10, CETP source not given), the inhibition at 5 µM was 5%.
With EDTSPEAKMQ [Variant G], the inhibition at 2 µM in series [2] (final conc. 2 μM, alanine variants of P10, CETP source not given, read-out: CETP inhibitory activity) is -3%.
Turning to EDTSPEDKMQDYVKQATRTAQDAL [Peptide P24], the inhibition at 2 µM in series [1] (setting [4]) was 50 ± 0.8%. Further, the “Inhibitory Activity (Mean ± S.D.)” value in series [2] (setting [5]) turned out to be 100 ± 2.5%. The “change in growth condition and morphology of cultured cells” value in series [3] was “no change”.
Regarding “EDTSPEDKMQDYVKQATRTAQDALTSVK [Peptide P28]”, the inhibition at 0.001 µM in series [1] (1 nM, human blood plasma itself as CETP source, read-out: CETP inhibitory activity (FIG. 4, curve B)) is approximately 50%; in series [2] (1 nM, pure CETP separated from human blood plasma, read-out: CETP inhibitory activity (FIG. 4, curve A)) it was approximately 100%. The inhibition at 2 µM at CETP (CE-receptor LDL, read-out: inhibition of the transfer of CE from HDL to LDL) was 50%; on CETP (CE-receptor VLDL, read-out: inhibition of the transfer of CE from HDL to VLDL), approximately 10%; at CETP (CE-receptor re-synthesized LDL (LDLR), read-out: inhibition of the transfer of CE from HDL to LDLR), 55%.
EDTSPEDKMQ [Peptide P10]: the inhibition at 2 µM in series [1] (setting [7]) was 45 ± 2.3%; in series [1] (final conc. of peptide 2 μM, CETP source human plasma, synthesized peptides, read-out: Inhibitory Activity (Mean ± S.D.)) it was 50 ± 4.5%; in series [2] (final conc. of peptide 2 μM, CETP source pure CETP, synthesized peptides, read-out: Inhibitory Activity (Mean ± S.D.)) it was 100 ± 2%. For the same sequence, the “change in growth condition and morphology of cultured cells” value in series [3] is on record as “no change”.
Consider EDTSPEDKMA [Variant J], for which the inhibition at 7 µM in series [2] (setting [6]) is 41%.
In the case of EDTSAEDKMQ [Variant E], in series [2] (setting [6]), the inhibition at 9 µM was -6%.
With EDTSLLDKMQDYVKQATR [Peptide P18], the “Inhibitory Activity (Mean ± S.D.)” value came out at 40 ± 5.5% in series [1] (final conc. of peptide 2 μM, CETP source human plasma, synthesized peptides) and 90 ± 3.5% in series [2] (setting [5]). In series [3], the “change in growth condition and morphology of cultured cells” value is listed as “no change”.
